Experimental data taken from patent publication US20070238742A1, “METHODS OF PREPARATION AND RESOLUTION OF E/Z ISOMERS OF VINYLFURO[2,3-D]PYRIMIDINE AND THEIR BIOLOGICAL ACTIVITIES AND RELATED COMPOSITIONS AND METHODS OF TREATMENT” (priority 2006, published 2007).

System: chick aorta
Test: aortic ring assay: chick aorta pieces in culture with angiogenic agents
Type: cell-based
Conditions: for resumption of angiogenesis / regrowth of capillary-like structures on removal: after removal of the agent, relative to tissue not treated with antiangiogenic agents (control); for inhibition of angiogenesis compared with the E/Z mixture: E-isomer vs E/Z mixture 5
Description: Biological activity in angiogenic assays were chosen as a way to compare anti-angiogenic activity, potency an reversibility of inhibition. The studies were conducted on pieces of chick aorta placed in culture with a mixture of angiogenic agents and various compounds.
Unresolved mixture of E/Z-isomers 5 and isolated E-isomer 1 from the series of compounds under study were assessed for desirable biological activities, i.e., antiangiogenic activity and persistence of inhibitory activity. It is well known that binding vascular endothelial growth factor with antibodies or aptamers or inhibiting VEGF signaling with small molecules reduces and even reverses angiogenesis. However, angiogenesis rapidly resumes once the agent is removed (Mancuso et al., J. Clin. Invest., 116:610-21, 2006; Baffert et al., Am. J. Physiol. Heart, 290:H509-11, 2006). In the case of tumors, rapid regrowth of new vessels contributes to the regrowth and survival of the tumor.

Structure (SMILES)	resumption of angiogenesis / regrowth of capillary-like structures on removal [%]	inhibition of angiogenesis compared with the E/Z mixture (comparison in words)	inhibition of angiogenesis compared with the E/Z mixture (comparison in words, listed as E-isomer)	resumption of angiogenesis compared with the E/Z parent compound (comparison in words, after removal)	inhibition of capillary outgrowth (aortic ring assay, compound present) [%]
Nc1nc(N)c2c(/C=C/c3ccc4ccccc4c3)coc2n1 (single isomer, unassigned; isomer 1) [E-isomer 1, 5-E-(2-naphthalen-2-yl-vinyl)-furo[2,3-d]pyrimidine-2,4-diamine]	31	comparable inhibition of angiogenesis	greater inhibition on a molar basis	less resumption of angiogenesis	–
Nc1nc(N)c2c(C=Cc3ccc4ccccc4c3)coc2n1 [E/Z mixture 5, 5-Z/E-(2-naphthalen-2-yl-vinyl)-furo[2,3-d]pyrimidine-2,4-diamine]	~72	–	–	–	84
